What is called IC50 is the concentration that gives 50% inhibition. Low values mean inhibition by little substance, high ones a need for much substance.

Here are results for 4 compounds from patent publication US20210087159A1, “TETRAHYDROCANNABINOLIC- CA[…] DERIVATIVES AND USES THEREOF” (AL&AM […]., priority 2018, published 2021).

Assay [1] relates to A549 (lung carcinoma). The assay is described as follows: XTT cytotoxicity assay (Pharma Seed). Type of assay: cell-based. As to conditions: Homo sapiens, 48 hours, 20, 10, 5, 1 μM, assay medium 1% FBS. As for the experimental part:
In this study, the cytotoxicity of several compounds of the present invention on lung and pancreatic cancer cell was evaluated.
A549 (lung carcinoma) culture medium: F12-K, supplemented with 10% FBS (heat inactivated), 2 mM L-glutamine, and 1% of Pen/Strep/Amp solution. A549 assay medium: F12-K, supplemented with 1% FBS (heat inactivated), 2 mM L-glutamine, and 1% of Pen/Strep/Amp solution.
Each of the tested compounds was dissolved in DMSO to reach a stock concentration of 20 mM (and stored at −15° C.-−25° C. until use. Compound Ia28 (MW 484 g/mol, 3.05 mg total) was dissolved in 0.315 mL; compound Ia9 (MW 484 g/mol, 2.33 mg total) was dissolved in 0.241 mL; and compound Ia6 (MW 428.3 g/mol, 2.25 mg total) was dissolved in 0.262 mL.
On the day of incubation with the cells, each compound was diluted in DMSO to reach 2 mM, 1 mM, 0.5 mM, 0.1 mM stock concentrations (1:10, 1:20, 1:40 and 1:200), and each of these stocks was further diluted in assay medium 1:100 for final concentration of 20 μM, 10 μM, 5 μM, and 1 μM.
Part 1—cell number calibration. PANC-1 and A549 cells were each plated in a 96 well plate, in their culture medium, at various cell concentrations per well, in triplicates, and were allowed to attach for 24 hours. Thereafter, culture medium was discarded, assay medium was added, and the cells were incubated for additional 72 hours. Finally, assay medium was discarded, and fresh culture medium was added to the cells along with 50 μl XTT reagent. The OD was measured every two hours for 6 hours (three times).
The highest cells number/well were chosen for part 2 as follows: PANC-1 at 7,500 cells per well, A549 at 5000 cells per well.
Part 2—cells incubation with tested compounds. PANC-1 and A549 cells were plated in a 96 well plate, in their culture medium, at the optimal cell concentration according to the results from the previous section and were allowed to attach for 24 hours. […] The OD was measured at the optimal time point according to the results in the previous section.
For orientation: Tetrazolium dyes change colour on reduction, which living cells bring about.

In assay [2] the test system is TNF-α. The assay is described as follows: LPS induced cytokine release assay, TNF-α by ELISA in PBMCs. The settings on record: human PBMCs; for TNF-α: 72 h, ELISA (LPS control 18.16); for change of TNF-α expression in LPS-treated cells: tested concentrations of 1 M and 10 M (so in the source). Type of assay: cell-based. The text has this:
This study was aimed to test the effect of 12 compounds (THCA, Ia1, Ia5, Ia6, Ia9, Ia11, Ia15, Ia17, Ia24, Ia25, Ia27, and Ia28) on human peripheral blood mononuclear cells (PBMCs) challenged by lipopolysaccharide (LPS) through monitoring multiple inflammatory endpoints.
Blood samples were collected from healthy volunteers according to protocols that have been reviewed and approved by the Chempartner Institutional Ethic Committee (IEC) upon signing an Informed Consent Form (ICF).
Fresh PBMCs were isolated and seeded into 96-well plate, and diluted solutions of the tested compounds and 0.1 μg/mL LPS were then added (in triplicates). To serve as control, 3 wells with PBMCs only, 3 wells with 0.1 μg/mL LPS, and 2 wells with 1 μg/mL dexamethasone (Dex) and 0.1 μg/mL LPS were included. After 72 hours incubation, supernatant was collected for tumor necrosis factor-α (TNF-α) measurement by enzyme-linked immunosorbent assay (ELISA), and cell pellets were harvested for cell proliferation measurement by CellTiter-Glo® Luminescent Cell Viability Assay (CTG).
The human blood sample from an individual donor was diluted by the same volume of sterile phosphate buffered solution (PBS) and mixed sufficiently by gentle shake. 15 mL Lymphoprep™ medium was transferred into a new 50 mL centrifuge tube, and the diluted blood sample (30 mL) was then carefully added onto the surface of the medium, which consequently contained Ficoll 400 and blood in a volume ratio of 1:2. Four interfaces were observed after centrifugation, which are, from top to bottom, layers of plasma, mononuclear cells, Ficoll medium, and red blood cells (RBCs). Plasma was absorbed, and mononuclear cells were then transferred into another new sterile centrifuge tube. Then, sterile PBS buffer was added into the collected PBMCs for washing, at a volume ratio of 3:1. PBMCs were washed with 5-10 mL PBS twice before cell counting with cytometer. Cells were centrifuged at 350×g, for 10 min, at 20° C. with the acceleration (5) and deceleration (5) settings during the centrifugation. The cells were resuspended with RPMI 1640 complete medium (containing 10% FBS) for assay, and the density was adjusted with RPMI 1640 complete medium to the final concentration of 2E6 cells/mL. Cells suspension of the PBMCs (100 μL/well) were seeded into 96-well plate (#3903).
Diluted solutions of the tested compounds were prepared with RPMI 1640 complete medium according to the following layout. Compounds were prepared at 5-fold of concentration (50 μM), and then were diluted to the working concentration of 10 μM with RPMI 1640 complete medium and made 10-fold serially dilution (2 points). The diluted compounds (50 μL/well) were added to the indicated wells, and the plate was incubated at 37° C., 5% CO2, for 72 h.
LPS (0.1 μg/mL, 100 μL) was added into each well. Dex (1 μg/mL) was included as a positive control. Plate was incubated at 37° C., 5% CO2 for 72 h. Supernatant was collected to measure TNF-α by ELISA. Cell proliferation was detected by CTG.
(An ELISA detects its analyte on a solid surface through an enzyme-linked reagent.)

As to `CCCCCc1cc2c(c(O)c1C(=O)NCCN(C)C)[C@@H]1C=C(C)CC[C@H]1C(C)(C)O2` [Ia6, (6aR,0aR)—N-(2-(dimethylamino)ethyl)-1-hydroxy-6,6,9-trimethyl-3-pentyl-6a,7,8,10a-tetrahydro-6H-benzo[c]chromene-2-carboxamide], inhibition in assay [1] was half-maximal at 5.2 µM (IC50). For the same compound, the TNF-α was 17.09 pg/mL in assay [2] (compound 1 μM + 0.1 μg/mL LPS) and 49.73 pg/mL in assay [2] (compound 10 μM + 0.1 μg/mL LPS). Moreover, in assay [2], the “change of TNF-α expression in LPS-treated cells” value (“change of TNF-α expression” below) is reported as “increased TNF-α expression”.

Turning to `CCCCCc1cc2c(c(O)c1C(=O)NCCCN1CCOCC1)[C@@H]1C=C(C)CC[C@H]1C(C)(C)O2` [Ia9, (6aR,0aR)-1-hydroxy-6,6,9-trimethyl-N-(3-morpholinopropyl)-3-pentyl-6a,7,8,10a-tetrahydro-6H-benzo[c]chromene-2-carboxamide], the IC50 in assay [1] is 7.8 µM. Besides, the TNF-α in assay [2] (compound 1 μM + 0.1 μg/mL LPS) came out at 20.26 pg/mL; in assay [2] (compound 10 μM + 0.1 μg/mL LPS) it was 45.82 pg/mL. Also, in assay [2], the “change of TNF-α expression” value is on record as “increased TNF-α expression”.

On to `C=C(C)[C@@H]1CCC(C)=C[C@H]1c1c(O)cc(CCCCC)c(C(=O)NCCCN2CCOCC2)c1O` [Ia28, (1′R,2′R)-2,6-dihydroxy-5′-methyl-N-(3-morpholinopropyl)-4-pentyl-2′-(prop-1-en-2-yl)-1′,2′,3′,4′-tetrahydro-[1,1′-biphenyl]-3-carboxamide], for which, in assay [1], the IC50 worked out at 11 µM. Moreover, the TNF-α worked out at 41.38 pg/mL in assay [2] (compound 1 μM + 0.1 μg/mL LPS) and 22.35 pg/mL in assay [2] (compound 10 μM + 0.1 μg/mL LPS). Moreover, the “change of TNF-α expression” value in assay [2] is given as “decreased TNF-α expression”.

On to `CCCCCc1cc2c(c(O)c1C(=O)O)[C@@H]1C=C(C)CC[C@H]1C(C)(C)O2` [THCA, tetrahydrocannabinolic acid, reference compound], for which the TNF-α in assay [2] (compound 1 μM + 0.1 μg/mL LPS) was determined as 21.04 pg/mL; in assay [2] (compound 10 μM + 0.1 μg/mL LPS) it was 27.57 pg/mL. Moreover, the “change of TNF-α expression” value in assay [2] is “increased TNF-α expression”.
